Results reported in patent US7642244B2, “Neuropeptide-2 receptor (Y-2R) agonists and uses thereof” (Hoffmann-La Roche Inc., priority 2005, dated 2010).
Like-named read-outs stand apart in the source and are kept apart here.

How the values were obtained:
[1] = molecular target: T1, Y1R (Homo sapiens, UniProt P25929); test: Calcium flux assay (FLIPR), Y1R; type: cell-based
T1 sequence (P25929 1-384): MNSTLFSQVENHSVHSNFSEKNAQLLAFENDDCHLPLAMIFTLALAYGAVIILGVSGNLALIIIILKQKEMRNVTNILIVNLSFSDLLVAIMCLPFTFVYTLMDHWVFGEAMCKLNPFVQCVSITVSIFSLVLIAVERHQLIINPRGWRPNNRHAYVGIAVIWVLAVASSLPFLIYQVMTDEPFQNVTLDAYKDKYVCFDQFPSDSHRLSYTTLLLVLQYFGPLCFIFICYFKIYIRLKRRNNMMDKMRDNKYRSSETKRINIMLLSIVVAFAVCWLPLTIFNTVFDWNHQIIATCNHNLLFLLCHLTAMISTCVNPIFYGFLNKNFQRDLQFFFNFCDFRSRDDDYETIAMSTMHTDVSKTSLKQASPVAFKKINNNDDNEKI
Description: (§1) During the incubation, test compounds were prepared at 3.5× the desired concentration in HBSS (20 mM HEPES)/0.05% BSA/1% DMSO and transferred to a 384-well plate for use on FLIPR® (FILPR, Fluorescent Imaging Plate Reader, is a registered trademark of Molecular Devices Corp.).
(§2) After incubation, both the cell and compound plates were brought to the FLIPR® and 20 μL of the diluted compounds were transferred to the cell plates by the FLIPR®. During the assay, fluorescence readings were taken simultaneously from all 384 wells of the cell plate every 1.5 seconds. Five readings were taken to establish a stable baseline, and then 20 μl of sample was rapidly (30 μl/sec) and simultaneously added to each well of the cell plate. The fluorescence was continuously monitored before, during and after sample addition for a total elapsed time of 100 seconds. Responses (increase in peak fluorescence) in each well following addition was determined. The initial fluorescence reading from each well, prior to ligand stimulation, was used as a zero baseline value for the data from that well. The responses were expressed as a percentage of maximal response of the positive control.

[2] = molecular target: Y4R (Homo sapiens, UniProt P50391); test: Calcium flux assay (FLIPR), Y4R; type: cell-based
Sequence of Y4R (P50391 whole entry): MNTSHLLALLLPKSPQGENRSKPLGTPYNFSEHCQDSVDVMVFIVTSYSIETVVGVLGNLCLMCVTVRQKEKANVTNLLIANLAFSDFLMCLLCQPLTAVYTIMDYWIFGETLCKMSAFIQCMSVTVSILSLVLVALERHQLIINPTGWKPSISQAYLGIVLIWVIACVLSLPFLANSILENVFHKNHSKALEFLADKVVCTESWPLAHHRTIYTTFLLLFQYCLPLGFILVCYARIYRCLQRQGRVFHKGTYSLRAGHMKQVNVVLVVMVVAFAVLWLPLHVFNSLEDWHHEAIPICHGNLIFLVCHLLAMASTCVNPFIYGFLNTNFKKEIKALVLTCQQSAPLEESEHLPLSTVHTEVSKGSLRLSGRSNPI
Description: as §1, §2

[3] = molecular target: T2, Y5R (Homo sapiens, UniProt Q15761); test: Calcium flux assay (FLIPR), Y5R; type: cell-based
T2 sequence (Q15761 1-445): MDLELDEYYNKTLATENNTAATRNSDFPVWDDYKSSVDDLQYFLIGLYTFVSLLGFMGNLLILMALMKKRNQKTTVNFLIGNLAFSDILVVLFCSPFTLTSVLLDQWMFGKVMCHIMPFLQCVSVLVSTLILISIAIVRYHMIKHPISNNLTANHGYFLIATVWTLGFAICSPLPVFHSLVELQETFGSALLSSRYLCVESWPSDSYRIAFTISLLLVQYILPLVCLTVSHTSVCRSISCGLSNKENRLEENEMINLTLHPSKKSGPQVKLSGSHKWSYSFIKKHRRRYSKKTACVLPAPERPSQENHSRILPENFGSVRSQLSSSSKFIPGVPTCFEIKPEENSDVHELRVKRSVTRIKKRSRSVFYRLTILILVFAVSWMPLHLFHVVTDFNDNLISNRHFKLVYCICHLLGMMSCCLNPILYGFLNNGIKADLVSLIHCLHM
Description: as §1, §2

[4] = tested on: hypothalamic slices; conditions: hypothalamic slices in vitro; cited from earlier work
[5] = tested on: female db/db mice; conditions: acute, 1 and 10 mg/kg, s.c., 28 hr prior to OGTT, female db/db mice (FIG. 24)
Description: Female db/db mice (C57BL/KsJ-Lep^db/db, Jackson Laboratories, USA) were at 6 weeks of age when received. The mice were housed in a temperature and humidity controlled environment with a 12 h light: 12 h dark cycle, and given access to food (Purina rodent chow 5008) and water ad libitum. The mice (12-weeks old) were pre-bled 4 days prior to study, and those within a narrow range of fasted blood glucose levels were selected for the study in order to minimize variability between vehicle control and drug-treated groups. […] Blood samples were collected from tail clips following a 6 hr fast for determination of baseline values (t=0 min). The mice were then gavaged with an oral bolus of glucose (1 g/kg), and additional blood samples were collected at regular intervals (t=30, 60 and 120 min) for glucose measurement. […] The area under the curve (AUC0-120 min) was determined using the trapezoid method.
All data shown are the mean ± standard deviation (s.d.). Statistical evaluation of the data was carried out using one-way ANOVA, followed by Dunnett's test to determine where statistically significant differences existed between vehicle and drug treated groups. […] Data analysis was carried out with GraphPad software (GraphPad Prism).

[6] = tested on: male DIO rats; conditions: 5 and 10 mg/kg, q48 hr, s.c., 3-week treatment, male DIO rats (FIG. 23)
Description: Male Sprague Dawley rats (7 weeks old) were obtained from Charles River Laboratories (USA) and housed in a temperature and humidity controlled environment with a 12 h light:12 h dark cycle. The rats were given ad libitum access to a high fat chow diet (HFD; 60% of dietary kcal as fat, Research Diets D12492) and water throughout the study. Following 7 weeks on the HFD, rats were sorted by body weight and caged singly.
All data shown are the mean ± standard error (s.e.m.). Statistical evaluation of the data was carried out using one-way ANOVA, followed by Dunnett's test to determine where statistically significant differences existed between vehicle and drug treated groups. Differences were considered statistically significant at P<005. Data analysis was carried out with GraphPad software (GraphPad Prism).

[7] = tested on: female db/db mice; conditions: q48 hr, s.c.
Description: Female db/db mice (C57BL/KsJ-Lep^db/db, Jackson Laboratories, USA) were at 6 weeks of age when received. The mice were housed in a temperature and humidity controlled environment with a 12 h light: 12 h dark cycle, and given access to food (Purina rodent chow 5008) and water ad libitum. The mice (9 week old) were pre-bled 4 days prior to drug treatment, and those within a narrow range of fasted blood glucose levels were selected for the study in order to minimize variability between vehicle control and drug-treated groups. […] Basal fasting (2 to 6 hr) blood glucose measurements were conducted weekly. On study day 20, an oral glucose tolerance test was performed following a 6 hr fast. Blood samples were collected from tail clips for determination of baseline values (t=0 min). The mice were then gavaged with an oral bolus of glucose (1 g/kg), and additional blood samples were collected at regular intervals (t=30, 60, and 120 min) for glucose measurement. […] The area under the curve (AUC0-120 min) was determined using the trapezoid method.
All data shown are the mean ± standard deviation (s.d.). Statistical evaluation of the data was carried out using one-way ANOVA, followed by Dunnett's test to determine where statistically significant differences existed between vehicle and drug treated groups. Differences were considered statistically significant at P<0.05. […]

| Compound | EC50 [1] | EC50 [2] | EC50 [3] | also measured |
| --- | --- | --- | --- | --- |
| CCCC[C@H](NC(=O)[C@@H](N)[C@@H](C)CC)C(=O)N1CCN(c2ccc3ncn(CC(=O)N[C@@H](CCCNC(=N)N)C(=O)N[C@@H](Cc4c[nH]cn4)C(=O)N[C@@H](Cc4ccc(O)cc4)C(=O)N[C@@H](CC(C)C)C(=O)N[C@@H](CC(N)=O)C(=O)N[C@@H](Cc4c[nH]c5ccccc45)C(=O)N[C@H](C(=O)N[C@H](C(=O)N[C@@H](CCCNC(=N)N)C(=O)N[C@@H](CCC(N)=O)C(=O)N(C)[C@@H](CCCNC(=N)N)C(=O)N[C@@H](Cc4ccc(O)cc4)C(N)=O)[C@@H](C)O)C(C)C)c(=O)c3c2)CC1 [Example 26] | > 5 µM | > 5 µM | > 5 µM |  |
| CC[C@H](C)[C@H](N)C(=O)N[C@@H](CCCCN)C(=O)N1CCN(c2ccc3ncn(CC(=O)N[C@@H](CCCNC(=N)N)C(=O)N[C@@H](Cc4c[nH]cn4)C(=O)N[C@@H](Cc4ccc(O)cc4)C(=O)N[C@@H](CC(C)C)C(=O)N[C@@H](CC(N)=O)C(=O)N[C@@H](Cc4c[nH]c5ccccc45)C(=O)N[C@H](C(=O)N[C@H](C(=O)N[C@@H](CCCNC(=N)N)C(=O)N[C@@H](CCC(N)=O)C(=O)N(C)[C@@H](CCCNC(=N)N)C(=O)N[C@@H](Cc4ccc(O)cc4)C(N)=O)[C@@H](C)O)C(C)C)c(=O)c3c2)CC1 [Example 25] | 0.298 µM | > 5 µM | > 5 µM |  |
| N=C(N)NCCC[C@H](NC(=O)CC1(CC(=O)N2CCN(C3c4ccccc4NC(=O)c4ccccc43)CC2)CCCC1)C(=O)NCCn1c(=O)n(-c2ccccc2)n(-c2ccccc2)c1=O (stereo partly shown) [BIIE0246] |  |  |  | NPY release [4]: increases NPY release |
| CC[C@H](C)[C@H](NC(=O)c1ccccc1)C(=O)N[C@@H](CCCCN)C(=O)N1CCN(c2ccc3ncn(CC(=O)N[C@@H](CCCNC(=N)N)C(=O)N[C@@H](Cc4c[nH]cn4)C(=O)N[C@@H](Cc4ccc(O)cc4)C(=O)N[C@@H](CC(C)C)C(=O)N[C@@H](CC(N)=O)C(=O)N[C@@H](Cc4c[nH]c5ccccc45)C(=O)N[C@H](C(=O)N[C@H](C(=O)N[C@@H](CCCNC(=N)N)C(=O)N[C@@H](CCC(N)=O)C(=O)N(C)[C@@H](CCCNC(=N)N)C(=O)N[C@@H](Cc4ccc(O)cc4)C(N)=O)[C@@H](C)O)C(C)C)c(=O)c3c2)CC1 [Example 32] | > 5 µM | > 5 µM | > 5 µM |  |
| Ile((PEG-30,000)CH2CH2NHCOCH2CH2CO)(ε)Lys-Pqa-Arg-His-Tyr-Leu-Asn-Trp-Val-Thr-Arg-Gln-(NMe)Arg-Tyr-NH2 [Example 41] |  |  |  | glucose excursion in response to an oral glucose challenge [5]: significantly decreased glucose excursion; body weight gain versus vehicle-treated animals [6]: significant decrease in body weight gain; basal blood glucose levels versus vehicle-treated animals ([7]; 1, 3 and 10 mg/kg, day 8, 15 and 21, female db/db mice (FIG. 25A)): reduced basal blood glucose levels; glucose excursion in response to an oral glucose challenge ([7]; day 20, 3 and 10 mg/kg, female db/db mice (FIG. 25B)): significantly decreased glucose excursion |
| CCCCC(=O)N[C@H](C(=O)N[C@@H](CCCCN)C(=O)N1CCN(c2ccc3ncn(CC(=O)N[C@@H](CCCNC(=N)N)C(=O)N[C@@H](Cc4c[nH]cn4)C(=O)N[C@@H](Cc4ccc(O)cc4)C(=O)N[C@@H](CC(C)C)C(=O)N[C@@H](CC(N)=O)C(=O)N[C@@H](Cc4c[nH]c5ccccc45)C(=O)N[C@H](C(=O)N[C@H](C(=O)N[C@@H](CCCNC(=N)N)C(=O)N[C@@H](CCC(N)=O)C(=O)N(C)[C@@H](CCCNC(=N)N)C(=O)N[C@@H](Cc4ccc(O)cc4)C(N)=O)[C@@H](C)O)C(C)C)c(=O)c3c2)CC1)[C@@H](C)CC [Example 29] | > 5 µM | > 5 µM | > 5 µM |  |
| CC[C@H](C)[C@H](NC(=O)C(C)(C)C)C(=O)N[C@@H](CCCCN)C(=O)N1CCN(c2ccc3ncn(CC(=O)N[C@@H](CCCNC(=N)N)C(=O)N[C@@H](Cc4c[nH]cn4)C(=O)N[C@@H](Cc4ccc(O)cc4)C(=O)N[C@@H](CC(C)C)C(=O)N[C@@H](CC(N)=O)C(=O)N[C@@H](Cc4c[nH]c5ccccc45)C(=O)N[C@H](C(=O)N[C@H](C(=O)N[C@@H](CCCNC(=N)N)C(=O)N[C@@H](CCC(N)=O)C(=O)N(C)[C@@H](CCCNC(=N)N)C(=O)N[C@@H](Cc4ccc(O)cc4)C(N)=O)[C@@H](C)O)C(C)C)c(=O)c3c2)CC1 [Example 30] | > 5 µM | > 5 µM | > 5 µM |  |
| CC[C@H](C)[C@H](NC(C)=O)C(=O)N[C@@H](CCCCN)C(=O)N1CCN(c2ccc3ncn(CC(=O)N[C@@H](CCCNC(=N)N)C(=O)N[C@@H](Cc4c[nH]cn4)C(=O)N[C@@H](Cc4ccc(O)cc4)C(=O)N[C@@H](CC(C)C)C(=O)N[C@@H](CC(N)=O)C(=O)N[C@@H](Cc4c[nH]c5ccccc45)C(=O)N[C@H](C(=O)N[C@H](C(=O)N[C@@H](CCCNC(=N)N)C(=O)N[C@@H](CCC(N)=O)C(=O)N(C)[C@@H](CCCNC(=N)N)C(=O)N[C@@H](Cc4c(F)cc(O)cc4F)C(N)=O)[C@@H](C)O)C(C)C)c(=O)c3c2)CC1 [Example 27] | > 5 µM | > 5 µM |  |  |
| CC[C@H](C)[C@H](NC(=O)CC1CCCCC1)C(=O)N[C@@H](CCCCN)C(=O)N1CCN(c2ccc3ncn(CC(=O)N[C@@H](CCCNC(=N)N)C(=O)N[C@@H](Cc4c[nH]cn4)C(=O)N[C@@H](Cc4ccc(O)cc4)C(=O)N[C@@H](CC(C)C)C(=O)N[C@@H](CC(N)=O)C(=O)N[C@@H](Cc4c[nH]c5ccccc45)C(=O)N[C@H](C(=O)N[C@H](C(=O)N[C@@H](CCCNC(=N)N)C(=O)N[C@@H](CCC(N)=O)C(=O)N(C)[C@@H](CCCNC(=N)N)C(=O)N[C@@H](Cc4ccc(O)cc4)C(N)=O)[C@@H](C)O)C(C)C)c(=O)c3c2)CC1 [Example 31] | > 5 µM | > 5 µM | > 5 µM |  |
